# Measurements from patent US10179770B2, “Quinolines derivatives as novel anticancer agents” (GENOSCIENCE PHARMA, priority 2013, dated 2019).
# What was measured:
# SN12C = experiment: NCI-60 screen (SRB); type: cell-based; conditions: SN12C (Renal)
# Procedure: (§1) The human tumor cell lines of the cancer screening panel are grown in RPMI 1640 medium containing 5% fetal bovine serum and 2 mM L-glutamine. For a typical screening experiment, cells are inoculated into 96 well microtiter plates in 100 μL at plating densities ranging from 5,000 to 40,000 cells/well depending on the doubling time of individual cell lines. After cell inoculation, the microtiter plates are incubated at 37° C., 5% CO2, 95% air and 100% relative humidity for 24 h prior to addition of experimental drugs.
# (§2) After 24 h, two plates of each cell line are fixed in situ with TCA, to represent a measurement of the cell population for each cell line at the time of drug addition (Tz). Experimental drug is solubilized in dimethyl sulfoxide at 400-fold the desired final maximum test concentration and stored frozen prior to use. At the time of drug addition, an aliquot of frozen concentrate is thawed and diluted to twice the desired final maximum test concentration with complete medium containing 50 μg/ml gentamicin. Additional four, 10-fold or ½ log serial dilutions are made to provide a total of five drug concentrations plus control. Aliquots of 100 μl of these different drug dilutions are added to the appropriate microtiter wells already containing 100 μl of medium, resulting in the required final drug concentrations.
# (§3) Following drug addition, the plates are incubated for an additional 48 h at 37° C., 5% CO2, 95% air, and 100% relative humidity. For adherent cells, the assay is terminated by the addition of cold TCA. Cells are fixed in situ by the gentle addition of 50 μl of cold 50% (w/v) TCA (final concentration, 10% TCA) and incubated for 60 minutes at 4° C. The supernatant is discarded, and the plates are washed five times with tap water and air dried. Sulforhodamine B (SRB) solution (100 μl) at 0.4% (w/v) in 1% acetic acid is added to each well, and plates are incubated for 10 minutes at room temperature. After staining, unbound dye is removed by washing five times with 1% acetic acid and the plates are air dried. Bound stain is subsequently solubilized with 10 mM trizma base, and the absorbance is read on an automated plate reader at a wavelength of 515 nm. For suspension cells, the methodology is the same except that the assay is terminated by fixing settled cells at the bottom of the wells by gently adding 50 μl of 80% TCA (final concentration, 16% TCA). Using the seven absorbance measurements [time zero, (Tz), control growth, (C), and test growth in the presence of drug at the five concentration levels (Ti)], the percentage growth is calculated at each of the drug concentrations levels.
# (§4) Percentage growth inhibition is calculated as: [(Ti−Tz)/(C−Tz)]×100 for concentrations for which Ti>/=Tz (1) [(Ti−Tz)/Tz]×100 for concentrations for which Ti<Tz (2)
# (§5) Growth inhibition of 50% (GI50) is calculated from [(Ti−Tz)/(C−Tz)]×100=50 (3)
# (§6) which is the drug concentration resulting in a 50% reduction in the net protein increase (as measured by SRB staining) in control cells during the drug incubation.
# (§7) The drug concentration resulting in total growth inhibition (TGI) is calculated from Ti=Tz (4)
# (§8) The LC50 (concentration of drug resulting in a 50% reduction in the measured protein at the end of the drug treatment as compared to that at the beginning) indicating a net loss of cells following treatment is calculated from [(Ti−Tz)/Tz]×100=−50 (5)
# (§9) Values are calculated for each of these three parameters if the level of activity is reached; however, if the effect is not reached or is exceeded, the value for that parameter is expressed as greater or less than the maximum or minimum concentration tested.
# 786-0 = experiment: NCI-60 screen (SRB); type: cell-based; conditions: 786-0 (Renal)
# Procedure: as §1, §2, §3, §4, §5, §6, §7, §8, §9
# MOLT-4 = experiment: NCI-60 screen (SRB); type: cell-based; conditions: MOLT-4 (Leukemia)
# Procedure: as §1, §2, §3, §4, §5, §6, §7, §8, §9
# UO-31 = experiment: NCI-60 screen (SRB); type: cell-based; conditions: UO-31 (Renal)
# Procedure: as §1, §2, §3, §4, §5, §6, §7, §8, §9
# MALME-3M = experiment: NCI-60 screen (SRB); type: cell-based; conditions: MALME-3M (Melanoma)
# Procedure: as §1, §2, §3, §4, §5, §6, §7, §8, §9
# HCT-15 = experiment: NCI-60 screen (SRB); type: cell-based; conditions: HCT-15 (Colon)
# Procedure: as §1, §2, §3, §4, §5, §6, §7, §8, §9
# KM12 = experiment: NCI-60 screen (SRB); type: cell-based; conditions: KM12 (Colon)
# Procedure: as §1, §2, §3, §4, §5, §6, §7, §8, §9
# A498 = experiment: NCI-60 screen (SRB); type: cell-based; conditions: A498 (Renal)
# Procedure: as §1, §2, §3, §4, §5, §6, §7, §8, §9
# A549/ATCC = experiment: NCI-60 screen (SRB); type: cell-based; conditions: A549/ATCC (Non-Small Cell Lung)
# Procedure: as §1, §2, §3, §4, §5, §6, §7, §8, §9
# [1] = system: PBMC Healthy voluntary donor; experiment: Cell growth inhibition assay, PBMC of healthy donors; type: cell-based, human; conditions: Homo sapiens, PBMC
# Procedure: (§10) Each compound was added at different concentrations (combinations of six concentrations) to each well, and cell cultures were incubated for 48 h. Vehicle (H2O) was used as a control, and all compounds were tested in a constant percentage of vehicle. Cell outgrowth was measured using the CellTiter-Glo luminescent cell viability assay as described by the manufacturer (Promega, Ref G7571 Madison, Wis., USA) using a Centro (Berthold, France) plate reader. In each experiment, each point represents the average of triplicates in cell culture. The experimental data are analyzed using a computer program, Graphpad Prism (GraphPad Software, Inc.
# MOLM-14 cell line = experiment: Growth inhibition assay of MOLM-14 (CellTiter-Glo, example 63); type: cell-based; conditions: Homo sapiens, 48 h, method of example 63
# Procedure: MOLM-14 cell line was cultured in RPMI-1640 Medium supplemented with 10% v/v Fetal Bovine Serum (FBS), 1% Penicillin-Streptomycin and maintained at 37° C. with 5% CO2. 10,000 cells were plated onto 96-well plates immediately before the assay.
# as §10, with “reader.” for “reader. In each experiment, each point represents the average of triplicates in cell culture. The experimental data are analyzed using a computer program, Graphpad Prism (GraphPad Software, Inc.”
# In each experiment, each point represents the average of triplicates in cell culture.
# The experimental data are analyzed using a computer program, Graphpad Prism (GraphPad Software, Inc. La Jolla, Calif.) and EC50 values were determined as the dose of compound required to reduce absorbance values to 50% of the signal obtained for vehicle treated cell cultures.
# [2] = Homo sapiens, read-out: LC50 (the source's name)
smiles,measurement,setting,value
"CC(C)(C)NC1CCN(c2cc(-c3ccc(Cl)cc3)nc3ccccc23)CC1.Cl.Cl [XII-4, 2-(4-chloro-phenyl)-4-(4-N-tert-butylamino-piperidin-1-yl)quinoline dihydrochloride]",Growth percent at 10 μM,SN12C,++ (cell growth 40 > % < 60)
same,Growth percent at 10 μM,786-0,++ (cell growth 40 > % < 60)
same,Growth percent at 10 μM,MOLT-4,++ (cell growth 40 > % < 60)
same,Growth percent at 10 μM,UO-31,+++ (cell growth 20 > % < 40)
same,Growth percent at 10 μM,MALME-3M,××× (cell growth −40 < % > −60)
same,Growth percent at 10 μM,HCT-15,++++ (cell growth 0 > % < 20)
same,Growth percent at 10 μM,KM12,+ (cell growth 60 > % < 80)
same,Growth percent at 10 μM,A498,+++ (cell growth 20 > % < 40)
same,Growth percent at 10 μM,A549/ATCC,++ (cell growth 40 > % < 60)
same,EC50,[1]; PBMC Healthy voluntary donor 1,43 µM
same,EC50,[1]; PBMC Healthy voluntary donor 2,15 µM
"CCN(CC)C1CCN(C(C)c2cc(-c3ccccc3)nc3ccccc23)CC1.Cl.Cl (stereo not drawn) [XIX-3, 2-phenyl-4-{1-[4-(N,N-diethylamino)piperidin-1-yl]-eth-1-yl}quinoline dihydrochloride]",GI50,SN12C; Homo sapiens,12 µM
same,LC50 (concentration giving 50% net cell kill),SN12C; Homo sapiens,26 µM
same,TGI,SN12C,26 µM
same,Growth percent at 10 μM,SN12C,+ (cell growth 60 > % < 80)
same,TGI,786-0,23 µM
same,Growth percent at 10 μM,786-0,++ (cell growth 40 > % < 60)
same,GI50,786-0; Homo sapiens,8 µM
same,CC50,786-0; [2],54 µM
same,GI50,MOLT-4; Homo sapiens,4 µM
same,CC50,MOLT-4; [2],49 µM
same,TGI,MOLT-4,15 µM
same,Growth percent at 10 μM,MOLT-4,++++ (cell growth % < 20)
same,GI50,UO-31; Homo sapiens,8 µM
same,CC50,UO-31; [2],22 µM
same,TGI,UO-31,22 µM
same,Growth percent at 10 μM,UO-31,++ (cell growth 40 > % < 60)
same,GI50,MALME-3M; Homo sapiens,2 µM
same,CC50,MALME-3M; [2],7 µM
same,TGI,MALME-3M,4 µM
same,Growth percent at 10 μM,MALME-3M,×× (cell growth −20 > % < −40)
same,TGI,HCT-15,14 µM
same,Growth percent at 10 μM,HCT-15,++++ (cell growth % < 20)
same,GI50,HCT-15; Homo sapiens,3 µM
same,CC50,HCT-15; [2],47 µM
same,GI50,KM12; Homo sapiens,10 µM
same,CC50,KM12; [2],50 µM
same,TGI,KM12,22 µM
same,Growth percent at 10 μM,KM12,++ (cell growth 40 > % < 60)
same,TGI,A498,20 µM
same,Growth percent at 10 μM,A498,++ (cell growth 40 > % < 60)
same,GI50,A498; Homo sapiens,5 µM
same,LC50,A498; Homo sapiens,54 µM
same,TGI,A549/ATCC,31 µM
same,Growth percent at 10 μM,A549/ATCC,+ (cell growth 60 > % < 80)
same,GI50,A549/ATCC; Homo sapiens,15 µM
same,CC50,A549/ATCC; [2],63 µM
same,EC50,[1]; PBMC Healthy voluntary donor 2,21 µM
same,EC50,MOLM-14 cell line,22 µM
"CCN(CC)C1CCN(C(C)c2cc(-c3ccc4ccccc4c3)nc3ccccc23)CC1.Cl.Cl (stereo not drawn) [XXIV-3, 2-(2-naphtyl)-4-{1-[4-(N,N-diethylamino)-piperidin-1-yl]-eth-1-yl}quinoline dihydrochloride]",EC50,[1]; PBMC Healthy voluntary donor 1,8 µM
same,EC50,[1]; PBMC Healthy voluntary donor 2,7 µM
"Cc1ccc(-c2cc(N3CCC(NC(C)(C)C)CC3)c3ccccc3n2)cc1.Cl.Cl [XIII-8, 2-(4-methyl-phenyl)-4-(4-N-tert-butylamino-piperidin-1-yl)quinoline dihydrochloride]",EC50,[1]; PBMC Healthy voluntary donor 1,42 µM
same,EC50,[1]; PBMC Healthy voluntary donor 2,16 µM
same,EC50,MOLM-14 cell line,6 µM
